In this assay the test system is food intake of rats. Description: Antifeeding activity: food intake after intracerebroventricular infusion of NPYY5 agonist. In kind it is in vivo. The settings on record: Rattus norvegicus, compound 30 mg/kg oral, 0.1 nmol NPYY5 agonist infused one hour later. As for the experimental part:
A guide cannula was implanted in ventriculus lateralis of 7-week-old rats (200-300 g) reared in free-feeding. Then the rats reared in free-feeding about for 1 week.
A compound of the present invention was suspended in 0.5% HPMC solution (hydroxypropylmethylcellulose: 60SH-50, Shin-Etsu Chemical Co., Ltd.) to get a final concentration of 15 mg/ml.
Rats were given 2 mL/kg of a suspension of a compound of the present invention (the compound 30 mg/kg) by oral administration. On the other hand, rats in a control group were given the same amount of 0.5% HPMC by oral administration.
NPYY5 agonist ([cPP^1-7, NPY^19-23, Ala^31, Aib^32, Gln^34]-hPancreatic Polypeptide: Tocris Coockson) was dissolved in a physiological salt solution to be 0.1 nmol/10 μL. 0.1 nmol of the solution was infused via a guide cannula in a head of the rat one hour after giving a compound of the present invention. Immediately after the infusion, the amount of the remaining food was measured.
The amount of the remaining food was measured 1, 2 or 4 hour(s) after the infusion of an agonist and the food intake for this period was calculated. An antifeeding rate of a compound of the present invention against the food intake of rats in a control group was calculated.

The mark [1] stands for this setting: food intake 1 h after infusion vs control group, read-out: Antifeeding activity (%) 1 h.
[2] abbreviates: food intake 2 h after infusion vs control group, read-out: Antifeeding activity (%) 2 h.
The mark [3] stands for this setting: food intake 4 h after infusion vs control group, read-out: Antifeeding activity (%) 4 h.

Molecules are shown by their SMILES. Where two headings read alike, the source gives them in different places.

As to `CCn1c2ccccc2c2cc(NC(=O)CCNS(=O)(=O)CC(F)(F)F)ccc21` [Ig-1], the inhibition in vivo at 30 mg/kg runs as follows: under setting [1], 67%; under setting [2], 44%; under setting [3], 48%.

Consider `CN(C)S(=O)(=O)N[C@H]1CC[C@H](C(=O)Nc2ccc(C(F)(F)F)cc2)CC1` [Ii-1], for which the inhibition in vivo at 30 mg/kg by setting is: under setting [1], 42%; under setting [2], 38%; under setting [3], 31%.

With `CCS(=O)(=O)N[C@H]1CC[C@H](C(=O)Nc2ccc(OCC(F)(F)F)nc2)CC1` [Ia-2], the inhibition in vivo at 30 mg/kg is, setting by setting: under setting [1], 98%; under setting [2], 77%; under setting [3], 56%.

For `CCn1c2ccccc2c2cc(NC(=O)[C@H]3CC[C@H](NS(=O)(=O)CC)CC3)ccc21` [Id-1], the inhibition in vivo at 30 mg/kg under setting [1] worked out at 5%, the inhibition in vivo at 30 mg/kg under setting [2] is 37% and the inhibition in vivo at 30 mg/kg under setting [3] was 49%.

Consider `CCS(=O)(=O)NCCCCC(=O)Nc1ccc(OCC(F)(F)F)nc1` [Ia-3], for which the inhibition in vivo at 30 mg/kg by setting is: under setting [1], 85%; under setting [2], 78%; under setting [3], 74%.

Consider `CCS(=O)(=O)N[C@H]1CC[C@H](C(=O)Nc2ccc(N3C[C@@H](C)O[C@@H](C)C3)cc2)CC1` [Ib-1], for which the inhibition in vivo at 30 mg/kg under setting [1] stood at 90%, the inhibition in vivo at 30 mg/kg under setting [2] was 95% and the inhibition in vivo at 30 mg/kg under setting [3] stood at 92%.

`CCS(=O)(=O)NCCCCC(=O)Nc1ccc2c(c1)c1c(n2C(C)C)CCCC1` [Id-4]: the inhibition in vivo at 30 mg/kg reads like this: under setting [1], 100%; under setting [2], 94%; under setting [3], 95%.

With `CCn1c2ccccc2c2cc(NC(=O)CCCCNS(=O)(=O)CC)ccc21` [Id-2], the inhibition in vivo at 30 mg/kg turned out to be 100% under setting [1], 100% under setting [2] and 100% under setting [3].

The record behind these values is patent US7534892B2, “Sulfonamide compound” (Shionogi & Co., Ltd., priority 2004, dated 2009).
